Marks after values point to notes of the source that are not given here.
Columns and labels:
[1] = tested on: spatial memory in male C57BL/6NCrl mice; test: Object Location Task (OLT), 24-hour retention interval; type: in vivo; details: for d2 index, discrimination index between the new and familiar objects for T2: given 3 hours after T1, T2 after 24 h, mean (SEM)
From the text: The objective of this study was to evaluate the cognitive improvement effects of Roflumilast on spatial memory employing Object Location Task (OLT) in male C57BL/6NCrl mice. Roflumilast was compared with data of the already established PDE4 inhibitor Rolipram in the same model.
Maintenance of Animals Twenty-four 7 month-old male C57BL/6NCrl mice (Charles River, L'Arbresle, France) were used (average body weights: 27.6 g). The animals were kept under a 12/12-hour light/dark cycle (lights on from 07.00 pm to 07.00 am) with free access to food and water. All testing was done between 09.00 am and maximally 06.00 pm.
Preparation of Compounds for Administration Both rolipram (Sigma-Aldrich St. Louis, USA; MW 275.34) and roflumilast (Biocrea, Radebeul, Germany; MW 403.21) were dissolved in dimethylsulfoxide (DMSO) and kept at 4 ° C.; this stock solution was used for further dilutions in 0.5% methylcellulose. Each of rolipram and roflumilast is used in form of its free base. All injected solutions consisted of 0.5% methylcellulose with a fixed DMSO percentages (1.2%) (vehicle).
Object Location Task Studies in Rodents For the Object Location Task (OLT), doses of 0.01 mg/kg, 0.03 mg/kg and 0.1 mg/kg of Rolipram or Roflumilast or vehicle were administered subcutaneously (s.c.). Based on previous findings, PDE4 inhibitor single administration was performed 3 hours after the first trial as this has an optimum effect on object memory performance. The injection volume was 5 μl/g.
The OLT apparatus consisted of a circular arena, 40 cm in diameter. Half of the 40 cm transparent polyvinyl chloride wall was covered from the outside with white paper. Two objects were placed symmetrically about 10 cm away from the wall on the separation line, between the transparent and covered side of the arena. Four different sets of objects were available: (1) a cone made of brass (maximal diameter 6 cm and total height 3.8 cm), (2) a transparent glass bottle (diameter 2.7 cm, height 8.5 cm) filled with sand and water, (3) a massive metal cube (2.5 cm×5 cm×7.5 cm) with two holes (diameter 1.5 cm), and (4) a massive aluminum cube with a tapering top (4.5 cm×4.5 cm×8.5 cm).
A testing session comprised two trials of 4 minutes. Before each trial, mice were placed in an empty Makrolon cage (incubation cage) for the same amount of time as the trial (4 min). During the first trial (T1), two identical objects were placed symmetrically about 10 cm away from the wall on the separation line between the transparent and covered side of the arena. After the first exploration period of 4 min, the mouse was put back in its home cage. Mice then received treatment at 3 hours post T1. Subsequently, after a predetermined delay interval (24h), the mouse was placed in the apparatus for the second trial of 4 min (T2). Two identical objects as in T1 were used; one object was placed in the previously used position, whereas the other was placed in a novel position. The novel position of the object could either be a fixed distance towards the front or a fixed distance towards the back of the arena for both objects. The times spent exploring each object during T1 and T2 were recorded manually using a personal computer. All objects and locations were used in a balanced manner to exclude possible object and/or location preferences. To avoid olfactory cues, the objects were thoroughly cleaned with 70% ethanol after each trial. The testing order of conditions was determined randomly.
Statistical Data Analysis The measurements reflected the time spent by the mice in exploring each object during T1 and T2. The time spent in exploring the two identical samples in T1 were represented by ‘a1’ and ‘a2’, respectively. The time spent in exploring the sample and the new object in T2 were represented by ‘a’ and ‘b’, respectively. From these exploration times the following variables were calculated: e1, e2, and d2 (Table 1). The d2 index is a relative measure of discrimination corrected for exploratory activity. […]

[2] = tested on: xylazine/ketamine induced α2-adrenergic receptor-mediated anesthesia; test: xylazine/ketamine induced α2-adrenergic receptor-mediated anesthesia test (emetic potential); type: in vivo; details: in vivo, 0.3 mg/kg
From the text: Since emesis is a typical side-effect of phosphodiesterase 4 inhibitors the emetic potential of roflumilast and rolipram was investigated in parallel using the xylazine/ketamine induced α2-adrenergic receptor-mediated anesthesia test. The results confirmed that the two phosphodiesterase 4 inhibitors have different effects on emesis.

phosphodiesterase 4 = details: after administration of roflumilast; stated as believed; cited from earlier work
[3] = Plasma concentration levels of roflumilast and roflumilast-N-oxide in humans; type: in vivo, human
From the text: An interim analysis has been performed based on the data of 9 subjects of the Impaired Elderly group and 4 subjects of the Healthy Elderly group. For this purpose, cognitive battery test scores (VLT, SMT, Stroop task and BL-VAS) and concentrations of roflumilast and roflumilast-N-oxide in plasma have been analysed and summarized by dose over each scheduled sampling time using descriptive statistics.

[4] = tested on: scopolamine induced memory deficit in male Wistar rats; test: Object recognition task (ORT), scopolamine induced memory deficit; type: in vivo; details: scopolamine 0.1 mg/kg ip + vehicle
From the text: The objective of this study is to evaluate the efficacious dose range of roflumilast with regard to cognitive improvement effects by using scopolamine induced memory deficit on object memory performance in male Wistar rats. Memory acquisition processes are investigated using the object recognition test (ORT).
Maintenance of Animals: Sixteen 3-4 month old male Wistar rats (Charles River, Sulzfeld, Germany) were used for the study. All animals were housed individually in standard green line Tecniplast IVC cages on stardust bedding. The animals were housed on a reversed 12/12 h light/dark cycle (lights on from 07:00 pm to 07:00 am) and had free access to food and water. The rats were housed and tested in the same room. A radio, playing softly, provided background noise in the room. All testing was performed between 09:00 am and 06:00 pm.
Preparation of Compounds: Drugs were prepared daily, except as indicated otherwise. Roflumilast (Takeda, Konstanz, Germany, MW 403.21) was dissolved in 98% methylcellulose solution (0.5% methylcellulose) and 2% Tween 80. Roflumilast in doses of 0 (vehicle), 0.0001, 0.0003, 0.001, 0.003, 0.01 and 0.03 mg/kg was administered intraperitoneally (ip, injection volume 1 ml/kg). Scopolamine (in form of scopolamine hydrobromide) was dissolved in saline (0.9% NaCl). Scopolamine hydrobromide was administered intraperitoneally at a dose of 0.1 mg/kg (ip, injection volume 1 ml/kg). Scopolamine and roflumilast were administered 30 min before T1.
Object Recognition Task in Rats: The ORT was performed as described elsewhere (Ennaceur and Delaceur, 1988, Behav Brain Res, Vol 31, pp 47-59; Akkerman et al; 2012, Behav Brain Res, Vol 232, pp 335-347). The apparatus consisted of a circular arena, 83 cm in diameter. The back half of the 40 cm high wall was made of grey PVC and the front was made of transparent PVC. Fluorescent red tubes and a light bulb provided a constant illumination of about 20 lux on the floor of the apparatus. The light intensity was equal in the different parts of the apparatus.
Two objects were placed in symmetrical positions at the mid-line between the gray and transparent halves of the arena, about ten centimeters away from wall. Four different sets of objects were available: 1) a standard 1 L brown transparent glass bottle (diameter 10 cm, height 22 cm) filled with water, 2) a metal cube (10.0×5.0×7.5 cm) with two holes (diameter 1.9 cm), 3) a cone consisting of a gray PVC base (maximal diameter 18 cm) with a collar on top made of brass (total height 16 cm), and 4) an aluminium cube with a tapering top (13.0×8.0×8.0 cm). Objects were presented to the animals in a balanced manner to avoid object or place biases. Rats were unable to displace the objects.
A test session comprised two trials, each with durations of 3 min. During the learning trial (T1) the apparatus contains two identical objects (object al and a2). Rats were always introduced into the apparatus with their nose towards the transparent wall segment (i.e. facing outwards to the front of the arena). Subsequently, rats were put back in its home cage for a 1 h interval. After the retention interval, rats were put back into the arena for the […] (T2). In T2, the two objects from T1 were replaced by one identical copy (a3) and a different novel object (b). The times spent in exploring each object during T1 and T2 were recorded manually on a personal computer.
Exploration was defined in the following manner: directing the nose to the object at a distance of no more than 2 cm and/or touching the object with the nose. Sitting on the object was not considered as exploratory behavior. In order to avoid the presence of olfactory cues, the objects were thoroughly cleaned with a 70% ethanol solution before each trial.
Prior to compound testing, the animals were handled for 5 min on 2 consecutive days and allowed to explore the ORT arena, also for 5 min. […]

In the case of COc1ccc(C2CNC(=O)C2)cc1OC1CCCC1 (stereo not drawn) [rolipram], the “d2 index, discrimination index between the new and familiar objects for T2” value (from here on “d2 index … for T2”) ([1]; 0.01 mg/kg s.c.) is reported as 0.08 (0.05), the “d2 index compared with the vehicle condition (post-hoc Bonferroni t-test)” value ([1]; 0.03 mg/kg s.c.) is reported as “differed significantly from the vehicle condition” and the “d2 index … for T2” value ([1]; 0.03 mg/kg s.c.) is reported as 0.13 (0.05) #. For the same molecule, the “d2 index compared with zero (one-sample t-test)” value ([1]; 0.03 mg/kg s.c., after twenty-four hours) was “significantly differed from zero”, the “d2 index … for T2” value ([1]; 0.1 mg/kg s.c.) was 0.07 (0.05) and the “effect on spatial memory measured by the object location task test” value ([1]; single subcutaneous administration of 0.03 mg/kg) was “effective”. For the same molecule, the emetic potential [2] was “strong emetic potential”.
For O=C(Nc1c(Cl)c[n+]([O-])cc1Cl)c1ccc(OC(F)F)c(OCC2CC2)c1 [roflumilast-N-oxide, 3-cyclopropyl-methoxy-4-difluoromethoxy-N-(3,5-dichloro-1-oxypyrid-4-yl)benzamide], the “share of overall phosphodiesterase 4 inhibition in humans” value (phosphodiesterase 4) is listed as “more than 90%”, the “exposure (concentrations in plasma)” value ([3]; elderly study, interim analysis, 100, 250, 1000 mcg) is listed as “consistent with those previously reported” and the “steady state plasma concentration levels in once a day repeated dosing compared to once a day single dosing” value ([3]; humans, once a day (24 h) regimen) is listed as “about two-fold”.
With CN1[C@@H]2C[C@@H](OC(=O)[C@H](CO)c3ccccc3)C[C@H]1[C@@H]1O[C@@H]12 [scopolamine] the “d2 value compared to the vehicle condition (post-hoc Bonferroni t-test)” value [4] was “significantly lower” and the “d2 (discrimination index)” value ([4]; 1 h retention, mean (SEM)) was 0.01 (0.08).
